tested on: HCoV 229E; assay: HCoV 229E cytopathic effect (CPE) assay; assay type: cell-based, Human Coronavirus (HCov) 229E; settings: CellTiter Glo
Protocol: The antiviral activity of compounds was calculated based on the protection of the virus-induced CPE at each concentration normalized by the virus control.
Reagents and instruments used in this assay include luminescent cell viability assay kit CellTiter Glo (Promega) and Microplate Reader Synergy2 (BioTek).
Cytopathic effect (CPE) was measured by CellTiter Glo following the manufacturer's manual. The antiviral activity of compounds was calculated based on the protection of the virus-induced CPE at each concentration normalized by the virus control.

Row | SMILES | EC50 [nM]
1 | COc1cccc2[nH]c(C(=O)N[C@@H](CC(C)C)C(=O)N[C@@H](C[C@@H]3CCNC3=O)C(O)C#N)cc12 (single isomer, unassigned) [134 (Isomer 1)] | < 2000
2 | COc1cccc2[nH]c(C(=O)N[C@@H](CC(C)C)C(=O)N[C@@H](C[C@@H]3CCNC3=O)C(C#N)NC(C)(C)C)cc12 (single isomer, unassigned) [323 (Isomer 1)] | < 2000
3 | COc1cccc2[nH]c(C(=O)N[C@@H](CC(C)C)C(=O)N[C@@H](C[C@@H]3CCNC3=O)C(C#N)N3CCCC3)cc12 (single isomer, unassigned) [331 (Isomer 1)] | < 2000
4 | COc1cccc2[nH]c(C(=O)N3C[C@H](c4ccccc4)C[C@H]3C(=O)N[C@@H](C[C@@H]3CCNC3=O)C(O)C#N)cc12 (single isomer, unassigned) [345 (Isomer 2)] | < 2000
5 | COc1cccc2[nH]c(C(=O)N3CC(C45CC(C4)C5)C[C@H]3C(=O)N[C@H](C#N)C[C@@H]3CCNC3=O)cc12 (single isomer, unassigned) [385 (Isomer 1)] | < 2000
6 | COc1cccc2[nH]c(C(=O)N3CC4(CCCCC4)CC3C(=O)N[C@H](C#N)C[C@@H]3CCNC3=O)cc12 (single isomer, unassigned) [389A (Isomer 1)] | < 2000
7 | COc1cccc2[nH]c(C(=O)N[C@@H](CC(C)C)C(=O)N[C@@H](C[C@@H]3CCNC3=O)C(C#N)NCc3ccccc3)cc12 (single isomer, unassigned) [507 (Isomer 1.1)] | < 2000
8 | COc1cccc2[nH]c(C(=O)N3CC4(CCCCC4)CC3C(=O)N[C@H](C#N)C[C@@H]3CCCNC3=O)cc12 (single isomer, unassigned) [681 (Isomer 1)] | < 2000
9 | COc1cccc2[nH]c(C(=O)N[C@@H](CC(C)C)C(=O)N[C@@H](C[C@@H]3CCNC3=O)C(O)C#N)cc12 (single isomer, unassigned; isomer 2) [135 (Isomer 2)] | < 2000
10 | COc1cccc2[nH]c(C(=O)N[C@@H](CC(C)C)C(=O)N[C@H](C#N)C[C@@H]3CCNC3=O)cc12 [Compound 101, N-[(1S)-1-[[(1S)-1-cyano-2-[(3S)-2-oxopyrrolidin-3-yl]ethyl]carbamoyl]-3-methyl-butyl]-4-methoxy-1H-indole-2-carboxamide] | < 2000
11 | CC(C)C[C@H](NC(=O)c1nc2ccccc2[nH]1)C(=O)N[C@H](C#N)C[C@@H]1CCNC1=O [Compound 103, N-[(1S)-1-[[(1S)-1-cyano-2-[(3S)-2-oxopyrrolidin-3-yl]ethyl]carbamoyl]-3-methyl-butyl]-1H-benzimidazole-2-carboxamide] | < 2000
12 | CC(C)C[C@H](NC(=O)c1nc2cccc(Cl)c2[nH]1)C(=O)N[C@H](C#N)C[C@@H]1CCNC1=O [Compound 133] | < 2000
13 | COc1cccc2[nH]c(C(=O)NC(CC(C)C)C(=O)NC(CC3CCNC3=O)C(O)C#N)cc12 [Compound 134, N-[(1S)-1-[[(1S)-2-cyano-2-hydroxy-1-[[(3S)-2-oxopyrrolidin-3-yl]methyl]ethyl]carbamoyl]-3-methyl-butyl]-4-methoxy-1H-indole-2-carboxamide] | < 2000
14 | COc1cccc2[nH]c(C(=O)N3C[C@H](c4ccccc4)C[C@H]3C(=O)N[C@H](C#N)C[C@@H]3CCNC3=O)cc12 [Compound 171] | < 2000
15 | COc1cccc2[nH]c(C(=O)N[C@@H](CC3CCCCC3)C(=O)N[C@H](C#N)C[C@@H]3CCNC3=O)cc12 [Compound 185, N-[(1S)-2-[[(1S)-1-cyano-2-[(3S)-2-oxopyrrolidin-3-yl]ethyl]amino]-1-(cyclohexylmethyl)-2-oxo-ethyl]-4-methoxy-1H-indole-2-carboxamide] | < 2000
16 | COc1cccc2[nH]c(C(=O)N3C[C@H]4C([C@H]3C(=O)N[C@H](C#N)C[C@@H]3CCNC3=O)C4(C)C)cc12 (stereo partly drawn) [Compound 197, (2S,5S)—N-[(1S)-1-cyano-2-[(3S)-2-oxopyrrolidin-3-yl]ethyl]-3-(4-methoxy-1H-indole-2-carbonyl)-6,6-dimethyl-3-azabicyclo[3.1.0]hexane-2-carboxamide] | < 2000
17 | COc1cccc2[nH]c(C(=O)N[C@@H](CC3CC3)C(=O)N[C@H](C#N)C[C@@H]3CCNC3=O)cc12 [Compound 205, N—((S)-1-(((S)-1-cyano-2-((S)-2-oxopyrrolidin-3-yl)ethyl)amino)-3-cyclopropyl-1-oxopropan-2-yl)-4-methoxy-1H-indole-2-carboxamide] | < 2000
18 | COc1cccc2[nH]c(C(=O)N[C@@H](CC(C)C)C(=O)N[C@@H](C[C@@H]3CCNC3=O)C(C#N)N[C@@H](C)c3ccccc3)cc12 (stereo partly drawn) [Compound 329] | < 2000
19 | COc1cccc2[nH]c(C(=O)N3C[C@H](c4ccccc4)CC3C(=O)N[C@H](C=O)C[C@@H]3CCNC3=O)cc12 (stereo partly drawn) [Compound 344A] | < 2000
20 | COc1cccc2[nH]c(C(=O)N[C@@H](CC(C)C)C(=O)N[C@@H](C[C@@H]3CCNC3=O)C(N)C#N)cc12 (stereo partly drawn) [Compound 344C, N-[(1S)-1-[[(1S)-2-amino-2-cyano-1-[[(3S)-2-oxopyrrolidin-3-yl]methyl]ethyl]carbamoyl]-3-methyl-butyl]-4-methoxy-1H-indole-2-carboxamide] | < 2000
21 | COc1cccc2[nH]c(C(=O)N3C[C@H](c4ccccc4)C[C@H]3C(=O)N[C@@H](C[C@@H]3CCNC3=O)C(O)C#N)cc12 (stereo partly drawn) [Compound 345] | < 2000
22 | CC(C)C[C@H](NC(=O)c1cc2c(OC(F)(F)F)cccc2[nH]1)C(=O)N[C@H](C#N)C[C@@H]1CCNC1=O [Compound 361] | < 2000
23 | CC(C)C[C@H](NC(=O)c1nc2c(OC(F)(F)F)cccc2[nH]1)C(=O)N[C@H](C#N)C[C@@H]1CCNC1=O [Compound 363] | < 2000
24 | N#C[C@H](C[C@@H]1CCNC1=O)NC(=O)[C@H](CC1CC1)NC(=O)c1cc2c(C3CC3)cccc2[nH]1 [Compound 375A] | < 2000
25 | CCOc1cccc2[nH]c(C(=O)N[C@@H](CC(C)C)C(=O)N[C@H](C#N)C[C@@H]3CCNC3=O)cc12 [Compound 377] | < 2000
26 | COc1cccc2[nH]c(C(=O)N3C[C@@H]4CCC[C@@H]4[C@H]3C(=O)N[C@H](C#N)C[C@@H]3CCNC3=O)cc12 [Compound 393] | < 2000
27 | COc1cccc2[nH]c(C(=O)N3CC4(CC4)C[C@H]3C(=O)N[C@H](C#N)C[C@@H]3CCNC3=O)cc12 [Compound 397] | < 2000
28 | COc1cccc2[nH]c(C(=O)N3CC4(CCCC4)C[C@H]3C(=O)N[C@H](C#N)C[C@@H]3CCNC3=O)cc12 [Compound 401, (S)—N—((S)-1-cyano-2-((S)-2-oxopyrrolidin-3-yl)ethyl)-2-(4-methoxy-1H-indole-2-carbonyl)-2-azaspiro[4.4]nonane-3-carboxamide] | < 2000
29 | COc1cccc2[nH]c(C(=O)N[C@@H](CC(C)(C)C)C(=O)N[C@H](C#N)C[C@@H]3CCNC3=O)cc12 [Compound 405, N-[(1S)-1-[[(1S)-1-cyano-2-[(3S)-2-oxopyrrolidin-3-yl]ethyl]carbamoyl]-3,3-dimethyl-butyl]-4-methoxy-1H-indole-2-carboxamide] | < 2000
30 | COc1cccc2[nH]c(C(=O)N[C@@H](CC3CC3)C(=O)N[C@H](C#N)C[C@@H]3CCCNC3=O)cc12 [Compound 491, N-[(1S)-2-[[(1S)-1-cyano-2-[(3S)-2-oxo-3-piperidyl]ethyl]amino]-1-(cyclopropylmethyl)-2-oxo-ethyl]-4-methoxy-1H-indole-2-carboxamide] | < 2000

Reference: patent publication US11312704B2, “Inhibitors of cysteine proteases and methods of use thereof” (priority 2020, dated 2022)
